Test results taken from paper PMC8929329, “The pharmaceutical excipient PEG400 affect the absorption of baicalein in Caco‐2 monolayer model by interacting with UDP‐glucuronosyltransferases and efflux transport proteins” (Pharmacology Research & Perspectives, 2022).

Key:
[1] = Stability study in HBSS; assay type: physicochemical; details: 37°C, 2 h
Protocol: The test was carried out by measuring the content of B, BG, and B6G before and after keeping in the HBSS solution at 37°C for 2 h. The time interval was selected according to the permeation experiment. The differences between the contents of the three samples before or after the incubation were calculated and expressed as the percentage of B, BG, and B6G remaining.

[2] = Permeation experiments on Caco-2 cell monolayer (two-way transport); assay type: in vitro ADME, human; details: human, Caco-2, 5 µM; for efflux ratio at 120 min, 5 µM: read-out: ER (P BL-AP)/(P AP-BL); for Papp A→B at 120 min, 5 µM: read-out: P app Absorptive (AP-BL); for Papp B→A at 120 min, 5 µM: read-out: P app Secretory (BL-AP)
Protocol: (§1) Cell culture was performed as previously described.[15] For transport experiments, Caco-2 cells from passage number 20-30 were seeded at a density of 2 × 10^5 cells per well on transwell plate (a solid insert for cell culture contains porous permeable polycarbonate membrane) with polycarbonate membranes using a blood-counting chamber (QIU JING®). A 0.5 ml of culture medium with cells was added to the apical side (AP) and 1.5 ml of blank culture medium was added to the basolateral side (BL). During the incubation period, the medium on the AP and BL sides were changed every 2 days in the first week, and every day after a week until the 21st day. The permeation of samples was assessed in both directions at different concentrations. This experiment assessed the influence of different concentrations (%, v/v) of PEG400 on the permeation process of B, BG, and […]. […] Caco-2 cell monolayers with qualified monolayer membrane integrity were used for drug permeability experiments. Aspirated and discarded the original culture medium in the transwell plate, added pre-warmed (37°C) HBSS to wash 3 times, put it in the incubator for the last time and incubated for 30 min. […] For the AP-BL permeability (absorptive transport study), add 0.5 ml of samples (dissolved in HBSS) to the apical side (AP) as a supply chamber, and add 1.5 ml of pre-warmed HBSS to the basolateral side (BL) as a receiving chamber. Alternatively, in the permeation direction of BL-AP compartment (secretive transport study), add 1.5 ml of samples (dissolved in HBSS) to the BL side as a supply chamber, and add 0.5 ml of pre-warmed HBSS to the AP side as a receiving chamber. After the above steps, put the transwell plate on the thermostatic oscillator (Changzhou Wanhe Instrument Manufacturing Co., Ltd.) at 60 r/min. And sample 100 μl from the receiving pool or 10 μl from the supply chamber at 30, 60, 90, and 120 min depending on the experiment, and make up the same volume of blank pre-warmed HBSS. The sample taken from the transwell plate was precipitated with the 100 μl of methanol to precipitate the protein. After centrifugation at 16 000g for 15 min at 4°C, 70 μl of the supernatant was taken. And the content was determined by UPLC-MS/MS method to calculate the apparent permeability coefficient (P app) and efflux ratio (ER). The P app and ER of Caco-2 monolayers was measured and calculated as Equations ((2), (3), (4)): (2) Papp=dQ/dt/AC0 Where ΔQ/Δt (ng/ml·s) is the rate of permeability (ng/ml·s for B, BG, […]); A is for the membrane area (1.12 cm^2); C 0 (ng/ml/for B, BG, […]) is the initial concentration of the sample in the supply chamber. The apparent permeability might need to be corrected because of the effect of the marked amount of baicalein glucuronide.[17] Thus, the corrected permeability was calculated from the total rate of drug transport and the glucuronide excretion rate of bidirectional side divided by the membrane area (A) of the monolayer and the initial concentration of baicalein at the loading side (C 0): (3) Pcorrected=dQ/dt+Aex+Bex/AC0 (4) […] - BL Where P appBL-AP is the apparent permeability coefficient when the sample is added on the basolateral side; […]-BL is the apparent permeability coefficient when the sample is added on the apical side.

[3] = tested on: BCRP; assay: as above; assay type: in vitro ADME, human; details: human, Caco-2, with KO143 10 µM (BCRP inhibitor), 5 + 10 µM KO143 (BCRP inhibitor); for efflux ratio at 120 min, 5 µM: read-out: ER (P BL-AP)/(P AP-BL); for Papp A→B at 120 min, 5 µM: read-out: P app Absorptive (AP-BL); for Papp B→A at 120 min, 5 µM: read-out: P app Secretory (BL-AP)
Protocol: as §1

[4] = tested on: Caco-2 cell monolayer; assay: as above; assay type: in vitro ADME, human; details: for P appAL-BL / P appBL-AL: 5 μM in supply chamber; for permeation within 2 h compared with the control group: AL-BL experiment, baicalein 10 μM loaded with 0.5% (v/v) PEG400; for penetration within 2 h compared with the control group: BL-AP experiment, baicalein 10 μM loaded with 0.5% (v/v) PEG
Protocol: as §1

[5] = tested on: MRP2; assay: as above; assay type: in vitro ADME, human; details: human, Caco-2, with MK-571 10 µM, 5 + 10 µM MK571 (MRP inhibitor); for efflux ratio at 120 min, 5 µM: read-out: ER (P BL-AP)/(P AP-BL); for Papp A→B at 120 min, 5 µM: read-out: P app Absorptive (AP-BL); for Papp B→A at 120 min, 5 µM: read-out: P app Secretory (BL-AP)
Protocol: as §1

[6] = tested on: P-gp; assay: as above; assay type: in vitro ADME, human; details: human, Caco-2, with verapamil 10 µM, 5 + 10 µM Ver (P-GP inhibitor); for efflux ratio at 120 min, 5 µM: read-out: ER (P BL-AP)/(P AP-BL)
Protocol: as §1

[7] = parameters: method as in doi:10.2174/1573412916666200206141439; details: effect of PEG400; cited from earlier work

| SMILES | Stability (percentage remaining) ([1]; 150 ng ml^−1) [%] | Stability (percentage remaining) ([1]; 300 ng ml^−1) [%] | Stability (percentage remaining) ([1]; 600 ng ml^−1) [%] | efflux ratio at 120 min, 5 µM [2] | Papp A→B at 120 min, 5 µM [2] [nm/s] | Papp B→A at 120 min, 5 µM [2] [nm/s] | efflux ratio at 120 min, 5 µM [3] | Papp A→B at 120 min, 5 µM [3] [nm/s] | Papp B→A at 120 min, 5 µM [3] [nm/s] | ER (P BL-AP)/(P AP-BL) ([4]; 5 µM + 0.25%PEG400) | P app Absorptive (AP-BL) ([4]; 5 µM + 0.25%PEG400) | P app Secretory (BL-AP) ([4]; 5 µM + 0.25%PEG400) | ER (P BL-AP)/(P AP-BL) ([4]; 5 µM + 0.5%PEG400) | P app Absorptive (AP-BL) ([4]; 5 µM + 0.5%PEG400) | P app Secretory (BL-AP) ([4]; 5 µM + 0.5%PEG400) | ER (P BL-AP)/(P AP-BL) ([4]; 5 µM + 1%PEG400) | P app Absorptive (AP-BL) ([4]; 5 µM + 1%PEG400) | P app Secretory (BL-AP) ([4]; 5 µM + 1%PEG400) | P appAL-BL [4] [nm/s] | P appBL-AL [4] [nm/s] | also measured |
| --- | --- | --- | --- | --- | --- | --- | --- | --- | --- | --- | --- | --- | --- | --- | --- | --- | --- | --- | --- | --- | --- |
| O=C(O)[C@H]1O[C@@H](Oc2cc3oc(-c4ccccc4)cc(=O)c3c(O)c2O)[C@H](O)[C@@H](O)[C@@H]1O [BG, baicalein‐7‐O‐β‐D‐glucuronide] | 93.35 ± 8.25 | 99.20 ± 2.56 | 100.61 ± 4.92 | 1.57 | 65.2 ± 2.8 | 102 ± 3.7 | 0.62 | 109 ± 4 | 73.1 ± 9 | 1.03 | 9.91 ± 0.21 ^** 1 × 10^−6 cm·s^−1 | 10.24 ± 0.95 1 × 10^−6 cm·s^−1 | 0.65 | 15.98 ± 0.11 ^** 1 × 10^−6 cm·s^−1 | 10.36 ± 0.05 1 × 10^−6 cm·s^−1 | 0.57 | 14.37 ± 0.99 ^** 1 × 10^−6 cm·s^−1 | 8.24 ± 0.07 ^** 1 × 10^−6 cm·s^−1 | 65.2 ± 2.8 | 102.3 ± 3.7 | permeation within 2 h compared with the control group [4]: significantly increased; penetration within 2 h compared with the control group [4]: did not show a significant difference; efflux ratio at 120 min, 5 µM [5]: 0.86; Papp A→B at 120 min, 5 µM [5]: 132 ± 12.2 nm/s; Papp B→A at 120 min, 5 µM [5]: 114 ± 5.6 nm/s; efflux ratio at 120 min, 5 µM [6]: 1.65; Papp A→B at 120 min, 5 µM ([6]; read-out: P app Absorptive (AP-BL)): 63.7 ± 5.3 nm/s; Papp B→A at 120 min, 5 µM ([6]; read-out: P app Secretory (BL-AP)): 105 ± 1.4 nm/s; AUC0-t in plasma [7]: significantly increased; C max in plasma [7]: significantly increased |
| O=C(O)[C@H]1O[C@@H](Oc2c(O)cc3oc(-c4ccccc4)cc(=O)c3c2O)[C@H](O)[C@@H](O)[C@@H]1O [B6G, baicalein‐6‐O‐β‐D‐glucuronide] | 98.71 ± 6.52 | 99.36 ± 6.23 | 94.32 ± 5.33 | 1.1 | 63.8 ± 2.6 | 63.5 ± 5.5 | 0.71 | 66.8 ± 0.6 | 47.7 ± 0.9 | 0.93 | 6.74 ± 0.22 1 × 10^−6 cm·s^−1 | 6.3 ± 0.98 1 × 10^−6 cm·s^−1 | 0.71 | 6.15 ± 0.17 ^* 1 × 10^−6 cm·s^−1 | 4.39 ± 0.31 ^* 1 × 10^−6 cm·s^−1 | 0.56 | 7.53 ± 0.48 ^* 1 × 10^−6 cm·s^−1 | 4.24 ± 0.25 ^** 1 × 10^−6 cm·s^−1 | 63.8 ± 2.6 | 63.5 ± 5.5 | ER (P BL-AP)/(P AP-BL) ([4]; 5 µM): 1.01; P app Absorptive (AP-BL) ([4]; 5 + 10 µM Ver (P-GP inhibitor)): 6.37 ± 0.15 1 × 10^−6 cm·s^−1; P app Secretory (BL-AP) ([4]; 5 + 10 µM Ver (P-GP inhibitor)): 6.26 ± 0.2 1 × 10^−6 cm·s^−1; permeation within 2 h compared with the control group [4]: significantly increased; penetration within 2 h compared with the control group [4]: did not show a significant difference; efflux ratio at 120 min, 5 µM [5]: 0.65; Papp A→B at 120 min, 5 µM [5]: 69.1 ± 2.3 nm/s; Papp B→A at 120 min, 5 µM [5]: 45.6 ± 2.1 nm/s; efflux ratio at 120 min, 5 µM [6]: 0.98; AUC0-t in plasma [7]: significantly increased; C max in plasma [7]: significantly increased |
